# Key:
# [1] = Relative quantification of urinary aPM (UPLC-QTOF-MS, creatinine-normalized) after controlled α-pinene inhalation; assay type: in vivo, human; conditions: for Frequency of occurrence (percentage of samples with analyte detected) / Maximum response (highest peak response across all urine samples) / Observed Tmax: human urine after α-pinene inhalation; for Proportion (observed) after α-pinene inhalation: share of total response of 22 aPM, averaged over post-exposure samples
# Method: (§1) Briefly, for controlled inhalation experiments, eight healthy volunteers were exposed to α-pinene in a custom-built exposure chamber via inhalation from a 15 ml conical tube, containing approximately 100 μl α-pinene, for a duration of 10 min. Urine samples were collected before exposure (0 h) and 0.5, 1, 2, 3, and 4 h after exposure. […] Urine samples were collected both before (0 h) or 4 h after exposure. After collection, the urine samples were centrifuged and stored at −80 °C before analysis. […] Demographic information, including sex, age and race, can be found in Table S1.
# (§2) Briefly, after 1:10 dilution, urine samples were separated using an Acquity I-Class UPLC system with an Acquity Premier CSH C18 UPLC column (Waters, MA) with a gradient comprising 0.1 % formic acid in water as the solvent A and 0.1 % formic acid in acetonitrile as the solvent B. Mass Spectrometry Elevated Energy (MS^E) data were collected using a Waters Synapt XS MS (Waters, MA) with an ESI ion source operated in the negative mode. Subsequent analyses of raw files were performed using UNIFI 1.9 and Progenesis QI 3.0 (both from Waters, MA). To validate LC-MS performance, one quality control (QC) sample, prepared by pooling equal amount of each urine sample, was injected after every ten urine sample injections.
# (§3) Relative quantification of aPM was performed based on the peak responses normalized to urinary creatinine levels. Urinary creatinine levels were measured using an Ace Axcel Clinical Chemistry System with ACE Creatinine Reagent from Alfa Wassermann (West Caldwell, NJ). Statistical analyses, including ANOVA and Student’s t-tests, were conducted using SAS 9.4 (SAS Institute, NC) to explore differences in aPM across various time points. […] A threshold for statistical significance was defined as p < 0.05.
# [2] = Kinetic modeling of urinary aPM with a pseudo one-compartment nonlinear mixed-effects model after α-pinene inhalation; assay type: in vivo, human; conditions: for F (%), fraction of metabolite generated from absorbed α-pinene: human urine after 10 min α-pinene inhalation, F normalized to the sum of 22 detected metabolites; for Elimination t1/2 / Ka, first-order generation constant / Ke, first-order elimination rate constant: human urine after α-pinene inhalation, pseudo one-compartment model
# Description: In this equation, i represents the participant index, j the urine sample index, C the creatinine-normalized peak response, and t the sample collection time ( h).Ka denotes the first-order generation constant ( h^−1 ), and Ke denotes the first-order elimination rate constant h^−1 . F indicates the fraction of specific aPM relative to absorbed α-pinene. The variables D and V refer to the absorbed α-pinene amount and the distribution volume, respectively. Because input data were derived from relative quantification, absolute values of D , V , and F were not available. For simplicity, D and V were fixed at 100 and 1, respectively, and F was normalized relative to the sum of all detected aPM. The error term ε accounts for residual variation.
# [3] = aPM in mouse urine after i.p. injection of (+)-α-pinene or (−)-α-pinene; assay type: in vivo, mice (C57BL/6); conditions: for (1R)-(+)-α-Pinene (Average), proportion of aPM in mouse urine / (1S)-(−)-α-Pinene (Average), proportion of aPM in mouse urine: mouse urine collected overnight, 50 mg/kg; for (1R)-(+)-α-Pinene (Average), proportion of aPM in mouse urine: 50 mg/kg i.p. (+)-α-pinene; for (1S)-(−)-α-Pinene (Average), proportion of aPM in mouse urine: 50 mg/kg i.p. (−)-α-pinene; for R/(R+S): mouse urine, enantiomer specificity; for Detection in mouse urine: after exposure to either α-pinene enantiomer
# Method: Mouse urine was collected after exposures to either (+) or (−) α-pinene to distinguish between metabolites of different enantiomers of α-pinene. Adult male mice (C57BL/6) were intraperitoneally administered with 50 mg/kg body weight of (+)-α-pinene or (−)-α-pinene dissolved in 100 μl sterile saline with 1 % Tween 80.
# [4] = Urinary aPM after 4 h greenness (forest) exposure; assay type: in vivo, human; parameters: Maximum response: unit not given here; conditions: for Frequency of occurrence / Maximum response: human urine, greenness exposure; for Proportion (observed) after greenness exposure: share of total aPM response
# Method: as §1, §2, §3
Compound,Frequency of occurrence (percentage of samples with analyte detected) [1],Maximum response (highest peak response across all urine samples) [1],Observed Tmax [1],Proportion (observed) after α-pinene inhalation [1],"F (%), fraction of metabolite generated from absorbed α-pinene [2]",Elimination t1/2 [2],"Ka, first-order generation constant [2]","Ke, first-order elimination rate constant [2]","(1R)-(+)-α-Pinene (Average), proportion of aPM in mouse urine [3]","(1S)-(−)-α-Pinene (Average), proportion of aPM in mouse urine [3]",R/(R+S) [3],Frequency of occurrence [4],Detection in mouse urine [3],Maximum response [4],Proportion (observed) after greenness exposure [4]
"CC1(C)C2CC=C(C(=O)OC3OC(C(=O)O)C(O)C(O)C3O)C1C2 (single isomer, unassigned) [aPM3a, Myrtenic acid-GlcA]",93.8%,50629,1 h,3.2%,2.92 ± 0.94%,0.93 ± 0.27 h,1.80 ± 0.67 h⁻¹,0.75 ± 0.22 h⁻¹,0.0%,10.0%,0%,0.0%,–,–,–
"CC1(C)C2CC=C(C(=O)OC3OC(C(=O)O)C(O)C(O)C3O)C1C2 (single isomer, unassigned) [aPM3b, Myrtenic acid-GlcA]",100.0%,352366,1 h,–,–,0.61 ± 0.13 h,1.98 ± 0.60 h⁻¹,1.13 ± 0.24 h⁻¹,1.6%,2.7%,37.5%,87.5%,present in murine samples,2516,17.7%
"CC1(C)C2CCC(C(=O)OC3OC(C(=O)O)C(O)C(O)C3O)C1C2 (single isomer, unassigned) [aPM4a, Dihydromyrtenic acid-GlcA]",89.6%,72991,1 h,2.4%,3.19 ± 1.11%,0.71 ± 0.22 h,2.12 ± 0.87 h⁻¹,0.98 ± 0.30 h⁻¹,0.0%,5.0%,0.0%,6.3%,–,53,0.0%
"CC1(C)C2CCC(C(=O)OC3OC(C(=O)O)C(O)C(O)C3O)C1C2 (single isomer, unassigned) [aPM4b, Dihydromyrtenic acid-GlcA]",81.3%,14109,1 h,1.2%,1.47 ± 0.63%,0.79 ± 0.26 h,1.34 ± 0.47 h⁻¹,0.87 ± 0.28 h⁻¹,0.0%,4.2%,0.0%,0.0%,–,–,–
"CC1(C)C2CCC(C(=O)OC3OC(C(=O)O)C(O)C(O)C3O)C1C2 (single isomer, unassigned) [aPM4c, Dihydromyrtenic acid-GlcA]",89.6%,5156,1 h,0.5%,0.26 ± 0.08%,1.51 ± 0.54 h,1.65 ± 0.67 h⁻¹,0.46 ± 0.16 h⁻¹,0.0%,0.1%,0.0%,0.0%,–,–,–
"CC1(C)C2CCC(C(=O)OC3OC(C(=O)O)C(O)C(O)C3O)C1C2 (single isomer, unassigned) [aPM4d, Dihydromyrtenic acid-GlcA]",97.9%,183468,1 h,–,13.03 ± 5.57%,1.01 ± 0.40 h,0.73 ± 0.29 h⁻¹,0.68 ± 0.27 h⁻¹,0.0%,0.2%,0.0%,68.8%,present in murine samples,7375,9.4%
"CC1(C)C2CCC(C(=O)OC3OC(C(=O)O)C(O)C(O)C3O)C1C2 (single isomer, unassigned) [aPM4e, Dihydromyrtenic acid-GlcA]",95.8%,241782,1 h,–,18.14 ± 6.52%,0.99 ± 0.33 h,1.26 ± 0.50 h⁻¹,0.70 ± 0.24 h⁻¹,0.1%,0.2%,24.1%,93.8%,present in murine samples,27114,67.8%
"CC1(C)C2CC1C(OC1OC(C(=O)O)C(O)C(O)C1O)C=C2C(=O)O (single isomer, unassigned) [aPM5a, Myrtenic acid-4-O-GlcA]",79.2%,4787,1 h,0.3%,0.25 ± 0.09%,1.00 ± 0.38 h,1.64 ± 0.77 h⁻¹,0.70 ± 0.27 h⁻¹,0.0%,0.1%,0%,0.0%,–,–,–
"CC1(C)C2CC1C(OC1OC(C(=O)O)C(O)C(O)C1O)C=C2C(=O)O (single isomer, unassigned) [aPM5b, Myrtenic acid-4-O-GlcA]",91.7%,22121,1 h,1.6%,1.46 ± 0.57%,0.87 ± 0.34 h,1.74 ± 0.84 h⁻¹,0.80 ± 0.31 h⁻¹,0.0%,0.0%,–,6.3%,–,89,0.0%
"CC1(C)C2CC1C(OC1OC(C(=O)O)C(O)C(O)C1O)C=C2C(=O)O (single isomer, unassigned) [aPM5c, Myrtenic acid-4-O-GlcA]",79.2%,25963,1 h,1.2%,1.28 ± 0.53%,0.88 ± 0.36 h,1.73 ± 0.89 h⁻¹,0.79 ± 0.32 h⁻¹,0.0%,0.0%,–,37.5%,–,136,0.7%
α-Pinene-O-GlcA [aPM2a],–,–,0.5 h,–,0.51 ± 0.12%,0.56 ± 0.08 h,–,1.23 ± 0.17 h⁻¹,–,–,–,–,–,–,0.9%
